We go through eleven compounds from patent US6362188B1, “Farnesyl protein transferase inhibitors” (Schering Corporation, priority 1998, dated 2002).

In one series the test system is Human tumor cells. Description: Soft Agar Assay (anchorage-independent growth). The class given is cell-based. To be noted: colony outgrowth in soft agar, stated as a range for the group. The gist of the method: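 Tumor cells suspended in 0.3% agarose over a 0.6% agarose base, both layers containing the same farnesyl transferase inhibitor concentration. Incubated 10-16 days at 37° C, 5% CO2; colonies stained with MTT (1 mg/mL in PBS) and counted, IC50 determined.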

Each structure is given as a SMILES string.

For `Cc1cn(CC2CCCN(C(=O)C3CN(C4c5ccc(Cl)cc5CCc5cccnc54)CCN3C(=O)OC(C)(C)C)C2)cn1` (single isomer, unassigned) [Example 29], the melting point (commonly the temperature of the solid-liquid transition) lay within 109 to 124 °C. Moreover, the half-inhibitory concentration (IC50) (in general, the concentration that inhibits the measured activity by half) in the series with Human tumor cells was in the range of 0.5 to 30 nM.
`Cc1nccn1CC1CCCN(C(=O)C2CN(C3c4ccc(Cl)cc4CCc4cccnc43)CCN2C(=O)OC(C)(C)C)C1` (stereo not shown) [Example 26] displayed a melting point of 120 to 132 °C. The IC50 with Human tumor cells lay within 0.5 to 30 nM.
Turning to `Cc1cn(C[C@@H]2CCCN(C(=O)[C@H]3CN([C@H]4c5ccc(Cl)cc5CCc5cccnc54)CCN3C(=O)Cc3cc[n+]([O-])cc3)C2)cn1` [Example 412], the melting point is 175 °C (dec.). Besides, in the series with Human tumor cells, the IC50 was in the range of 0.05 to 30 nM.
On to `Cc1ncn(CC2CCCN(C(=O)C3CN(C4c5ccc(Cl)cc5CCc5cccnc54)CCN3C(=O)OC3CCCCC3)C2)c1C` (single isomer, unassigned) [47(G)], for which the melting point was 98 to 130 °C. Moreover, in the series with Human tumor cells, the IC50 lay within 0.05 to 30 nM.
The compound `Cc1cn(CC2CCCCN(C(=O)C3CN(C4c5ccc(Cl)cc5CCc5cccnc54)CCN3C(=O)OC3CCCCC3)C2)cn1` (stereo not shown) [Example 47(CC)] showed a melting point of 108 to 113 °C. The concentration for half-maximal inhibition (IC50) with Human tumor cells was in the range of 0.05 to 30 nM.
As for `O=C(C1CN(C2c3ccc(Cl)cc3CCc3cccnc32)CCN1C(=O)OC1CCCCC1)N1CCCC(Oc2cccnc2)C1` (stereo not shown) [47(U)], the melting point was 117 to 120 °C. Moreover, the IC50 in the series on Human tumor cells lay in the range of 0.05 to 30 nM.
`Cc1cn(C[C@@H]2CCCN(C(=O)[C@H]3CN([C@H]4c5ccccc5CCc5cc(F)cnc54)CCN3C(=O)OC3CCCCC3)C2)cn1` [Example 383] yielded a melting point of 121 to 126 °C. The half-maximal inhibitory concentration (IC50) in the series on Human tumor cells fell in the range of 0.05 to 30 nM.
The compound `CC(C)(C)OC(=O)N1CCN([C@@H]2c3ccc(Cl)cc3CCc3cc(Br)cnc32)C[C@@H]1C(=O)N1CCC[C@@H](Cn2ccnc2)C1` [Example 12] came in with a melting point of 135 to 138 °C. This compound also showed an IC50 in the series on Human tumor cells of 0.5 to 30 nM.
With `CCc1cn(CC2CCCN(C(=O)C3CN(C4c5ccc(Cl)cc5CCc5cccnc54)CCN3C(=O)OC(C)(C)C)C2)cn1` (stereo not shown) [35(A)], the melting point lay within 110 to 112 °C. The IC50 in the series with Human tumor cells is 0.05 to 30 nM.
The corresponding values for `Cc1cn(C[C@H]2CCCN(C(=O)[C@H]3CN([C@H]4c5ccc(Cl)cc5CCc5cc(F)cnc54)CCN3C(=O)OC3CCCCC3)C2)cn1` [Example 289] are 120 to 126 °C and 0.05 to 30 nM.
Compound `Cc1cn(C[C@@H]2CCCN(C(=O)[C@H]3CN([C@@H]4c5ccccc5CCc5cc(Br)cnc54)CCN3C(=O)OC3CCCCC3)C2)cn1` [Example 352] displayed a melting point of 122 to 125 °C. In the series on Human tumor cells, this compound came in with an IC50 of 0.05 to 30 nM.
